Assays:
[1] = tested on: nascent protein synthesis in HEK293T cells; experiment: BONCAT: confocal imaging of TAMRA alkyne ligated nascent proteins in fixed cells; assay type: cell-based, human
Procedure: To visualize the nascent proteins in intact cells, we performed click ligation on fixed cells with TAMRA alkyne, followed by confocal imaging. Treatment with AHA led to a robust fluorescence signal primarily in the cytoplasm compared to untreated cells indicating cytoplasmic protein synthesis (Figure 5D,E). […]
and 6 ug of Thermo Turbofect (FERR0531). KDM4A siRNA was transfected into cells using 10nM siRNA (Thermo 4392420) with 1:2 ug amount of Thermo Turbofect (FERR0531). Cells were washed 4 hours later and fresh DMEM was applied. The next day, the cells were treated with inhibitor (L-leucine NOG) and grown for 24 hours. […] The lysate was quantified with Bradford dye and 40 ug of lysate was incubated with 1 mM Tris[(1-benzyl-1H-1,2,3-triazol-4-yl)methyl]amine (TBTA […]
For analysis of AHA incorporation measured by fixed cell imaging, HEK293-T cells (ATCC CRL-1573) were grown in a 24 well plate (Corning) on poly-D-lysine (Gibco A3890401) treated glass coverslips (ThermoScientific 12-545-81P) overnight and transfected the next day with 500 ng KDM4A WT/F185A or Empty Vector (EV) equivalent using 1:2 ug of Thermo Turbofect (FERR0531). […]
(Sigma B2883-25MG) for 30 seconds, washed with PBS and finally adhered to a slide with gelvatol. […] Images were analyzed on ImageJ open-source software and NIS elements software. […]

HEK293T cells = experiment: MTT assay; assay type: cell-based, human; conditions: near millimolar concentrations (100 to 800 µM, 24 hours)
Source text: We next examined the orthogonal pairs for their ability to modulate lysine demethylation on the chromosomal histone in cultured human cells (Figure 4A). To this end, we generated the F185A mutation in full-length KDM4A carrying all of the functional domains. Furthermore, to enhance cell permeability, we synthesized two chemoselective ester prodrugs 6A and 6B carrying either an n-octyl or a trifluoromethyl benzyl ester as the lipophilic moiety, respectively (Figures 4A, S5, and S6, Scheme S3).[46],[47] We confirmed the cell permeability of 6A and 6B and their subsequent hydrolysis to 6 by analyzing extracts of compound-treated HEK293T cells using LC-HRMS. […]
12. Examining cell permeability and toxicity of 6A and 6B
In a T-25 cell culture flask, HEK293T cells were treated with either 200 µM L-Leu octyl-ester NOG 6A, L-Leu TFMB-ester NOG 6B, or corresponding volume of DMSO. Following 24 hours of incubation at 37 °C, media was removed and 3mL of 80:20 methanol: water was added while the flasks with cells were on dry ice. The flasks were then incubated in -80 °C for 10 minutes to allow cell lysis. […]
To assess the toxicity of 6A/B on HEK 293-T cells (ATCC CRL-1573) were counted, and 5,000 cells were plated into a 96 well cell culture plate (Corning) for n=5 of each treatment. […] Absorbance at 570nm was quantified via TECAN Infinite […]

Compound | TAMRA signal of nascent proteins (confocal imaging) ([1]; fixed HEK293T cells overexpressing F185A, to the level of cells expressing control vector) | cytotoxicity (HEK293T cells) | TAMRA signal of nascent proteins (confocal imaging) ([1]; fixed HEK293T cells, endogenous KDM4A, compared with KDM4A silencing)
CCCCCCCCOC(=O)C(=O)NC(CC(C)C)C(=O)O [6A, L-Leu octyl-ester NOG] | subsequently inhibited | marginal cytotoxicity | 
CC(C)CC(NC(=O)C(=O)OCc1cccc(C(F)(F)F)c1)C(=O)O [6B, L-Leu TFMB-ester NOG] |  | marginal cytotoxicity | 
CCCCCCCCOC(=O)c1ccc(O)c2ncccc12 [n-octyl IOX1] |  |  | phenocopied
